{
  "source": "patent US20110136899A1",
  "about": "“COMBINATION OF DRONEDARONE WITH AT LEAST ONE DIURETIC, AND THERAPEUTIC USE THEREOF” (SANOFI-AVENTIS, priority 2008, published 2011)",
  "key": {"[1]": {"experiment": "prospective, multinational, multicentre, double-blind clinical study versus placebo: prevention of cardiovascular hospitalizations or of mortality", "format": "in vivo, patients", "set-up": "reduction in mortality from any cause: concentration or dose not given beside the values", "protocol": "The patients had to have a history of atrial fibrillation or flutter and/or could be in normal sinus rhythm or in atrial fibrillation or flutter at inclusion.\nThe patient recruitment was carried out by taking into account the following inclusion criteria:\nInclusion Criteria: • 1) One of the following risk factors had to be present: • age equal to or above 70, or even above 75, possibly combined with at least one of the risk factors below: • hypertension (taking antihypertensives of at least two different classes), • diabetes, • history of cerebral stroke (transient ischemic event or completed cerebral stroke) or of systemic embolism, • left atrial diameter greater than or equal to 50 mm measured by echocardiography, • left ventricular ejection fraction less than 40%, measured by two-dimensional echography; • 2) availability of an electrocardiogram carried out during the past 6 months in order to document the presence or the history of atrial fibrillation or flutter; • 3) availability of an electrocardiogram carried out during the past 6 months in order to document the presence or absence of normal sinus rhythm.\nTreatment was initiated using tablets containing either the placebo or an amount of dronedarone hydrochloride corresponding to 400 mg of dronedarone at a rate of one tablet in the morning during or shortly after breakfast and one tablet in the evening during or shortly after dinner.\nThe anticipated duration of the treatment was variable according to the time at which each patient was included in the study, and could range from a minimum of 12 months for the last patient included up to a maximum corresponding to the entire duration of the study (12 months+duration of inclusion), i.e. approximately 30 months for the first patients included.\nThe results obtained in this trial were analysed by the Kaplan Meier method for the figures, and the relative risk (RR) was estimated using Cox's proportional-effect regression model.\nThe relative risk (RR) is the ratio of the rates of occurrence of a hospitalization or of a death among the patients on dronedarone, relative to the patients on placebo.\nThe percentage reduction x of a given event (hospitalization, death, cardiovascular death, etc.) is calculated in the following way: […]"}, "[2]": {"experiment": "regulation of the blood potassium level (regular blood samples taken throughout the clinical study)", "format": "in vivo, patients", "conditions": "after the 24th month, taking into account the starting value; compared to the placebo; p<0.0001", "source_text": "The potassium concentration-modulating effect is clearly documented in the study by virtue of the results of analyses of regular blood samples taken throughout the duration of the study in the context of the monitoring of vital parameters.\nThe variations in potassium (in mmol/l) between the first and the last administration of the medicament of the study are included in FIG. 8, in which B signifies basal level, D signifies day and M signifies month."}, "[3]": {"conditions": "versus placebo, x=1−relative risk"}},
  "note": "Where a name gives a salt, the structure may show the parent alone.",
  "data": [
    {"compound": "CCCCc1oc2ccc(NS(C)(=O)=O)cc2c1C(=O)c1ccc(OCCCN(CCCC)CCCC)cc1", "note": "[dronedarone hydrochloride]", "values": [
      {"measurement": "events (cardiovascular hospitalizations and mortality, principal judgment criterion)", "setting": "[1]; 2301 patients in treated group, 400 mg dronedarone twice daily, placebo group 917 events", "value": 734},
      {"measurement": "sudden deaths", "setting": "[1]; 2301 patients in treated group, placebo group 35 sudden deaths", "value": 14},
      {"measurement": "cardiovascular deaths", "setting": "[1]; 2301 patients in treated group, placebo group 94 cardiovascular deaths", "value": 65},
      {"measurement": "deaths (mortality from any cause)", "setting": "[1]; 2301 patients in treated group, placebo group 139 deaths", "value": 116},
      {"measurement": "events (cardiovascular hospitalizations)", "setting": "[1]; 2301 patients in treated group, placebo group 859 events", "value": 675},
      {"measurement": "events (cardiovascular hospitalizations and sudden death)", "setting": "[1]; 2301 patients in treated group, placebo group 873 events", "value": 684},
      {"measurement": "events (cardiovascular hospitalizations and cardiovascular mortality)", "setting": "[1]; 2301 patients in treated group, placebo group 892 events", "value": 701},
      {"measurement": "relative risk (sudden death)", "setting": "[1]; versus placebo, Cox model, p=0.0031", "value": 0.405},
      {"measurement": "relative risk (cardiovascular mortality)", "setting": "[1]; versus placebo, Cox model, p=0.0252", "value": 0.698},
      {"measurement": "relative risk (mortality from any cause)", "setting": "[1]; versus placebo, Cox model, p=0.1758", "value": 0.844},
      {"measurement": "relative risk (cardiovascular hospitalizations and deaths)", "setting": "[1]; versus placebo, Cox model, p=2×10^−8", "value": 0.758},
      {"measurement": "relative risk (cardiovascular hospitalizations)", "setting": "[1]; versus placebo, Cox model, p=9×10^−9", "value": 0.745},
      {"measurement": "relative risk (cardiovascular hospitalizations and cardiovascular deaths)", "setting": "[1]; versus placebo, Cox model, p=45×10^−10", "value": 0.745},
      {"measurement": "relative risk (cardiovascular hospitalizations and sudden deaths)", "setting": "[1]; versus placebo, Cox model, p=48×10^−10", "value": 0.743},
      {"measurement": "reduction in cardiovascular hospitalizations", "setting": "[1]; [3]", "value": 25.5, "unit": "%"},
      {"measurement": "reduction in cardiovascular hospitalizations and cardiovascular deaths", "setting": "[1]; [3]", "value": 25.5, "unit": "%"},
      {"measurement": "reduction in cardiovascular hospitalizations and deaths", "setting": "[1]; [3]", "value": 24.2, "unit": "%"},
      {"measurement": "reduction in cardiovascular hospitalizations and sudden deaths", "setting": "[1]; [3]", "value": 25.5, "unit": "%"},
      {"measurement": "reduction in cardiovascular mortality", "setting": "[1]; [3]", "value": 30.2, "unit": "%"},
      {"measurement": "reduction in mortality from any cause", "setting": "[1]; [3]", "value": 15.6, "unit": "%"},
      {"measurement": "reduction in sudden death", "setting": "[1]; [3]", "value": 59.5, "unit": "%"}
    ]},
    {"compound": "CCCCc1oc2ccc(NS(C)(=O)=O)cc2c1C(=O)c1ccc(OCCCN(CCCC)CCCC)cc1", "note": "[dronedarone, 2-n-Butyl-3-[4-(3-di-n-butylaminopropoxy)benzoyl]-5-methylsulphonamidobenzofuran]", "values": [
      {"measurement": "reduction in the risk of sudden death", "setting": "[1]; hypertensive patients", "value": "approximately 62%"},
      {"measurement": "reduction in the risk of sudden death", "setting": "[1]; patients not taking diuretics, compared with the placebo", "value": "approximately 34%"},
      {"measurement": "reduction in the risk of sudden death", "setting": "[1]; patients on diuretics, compared with the placebo", "value": "approximately 70.4%"},
      {"measurement": "reduction in the risk of sudden death", "setting": "[1]; patients who were not hypertensive", "value": "approximately 45.5%"},
      {"measurement": "change in blood potassium level (analysis of covariance)", "setting": "[2]", "value": "significant different in favour of dronedarone"}
    ]}
  ]
}
